Measurements reported in patent publication US20150216978A1, “MODULATORS OF DRUGS USING CARBOXYLESTERASE SELECTIVE INHIBITORS” (Rhode Island Board of Education, State of Rhode Island and …, priority 2013, published 2015).

Key:
[1] = molecular target: T1, ces1d (Mus musculus, UniProt Q8VCT4); settings: 1 nM Orlistat; cited from earlier work
T1 sequence (Q8VCT4 19-565): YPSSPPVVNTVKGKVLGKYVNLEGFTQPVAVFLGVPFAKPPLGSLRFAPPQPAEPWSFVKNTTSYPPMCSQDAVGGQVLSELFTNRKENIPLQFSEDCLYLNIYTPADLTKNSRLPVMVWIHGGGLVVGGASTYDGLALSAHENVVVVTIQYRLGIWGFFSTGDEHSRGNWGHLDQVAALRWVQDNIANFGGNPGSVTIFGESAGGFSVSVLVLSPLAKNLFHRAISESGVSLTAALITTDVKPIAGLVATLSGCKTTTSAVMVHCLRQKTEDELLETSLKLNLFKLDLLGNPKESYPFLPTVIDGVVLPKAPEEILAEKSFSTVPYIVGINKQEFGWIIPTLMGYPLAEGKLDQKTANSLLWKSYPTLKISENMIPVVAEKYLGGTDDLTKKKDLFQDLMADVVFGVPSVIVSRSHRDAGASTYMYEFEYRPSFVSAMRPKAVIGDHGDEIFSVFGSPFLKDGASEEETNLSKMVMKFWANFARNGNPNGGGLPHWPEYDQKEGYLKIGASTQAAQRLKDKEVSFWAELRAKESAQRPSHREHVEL

[2] = molecular target: T2, mouse ces2c (Mus musculus, UniProt Q91WG0); settings: 1 nM Orlistat; cited from earlier work
T2 sequence (Q91WG0 27-561): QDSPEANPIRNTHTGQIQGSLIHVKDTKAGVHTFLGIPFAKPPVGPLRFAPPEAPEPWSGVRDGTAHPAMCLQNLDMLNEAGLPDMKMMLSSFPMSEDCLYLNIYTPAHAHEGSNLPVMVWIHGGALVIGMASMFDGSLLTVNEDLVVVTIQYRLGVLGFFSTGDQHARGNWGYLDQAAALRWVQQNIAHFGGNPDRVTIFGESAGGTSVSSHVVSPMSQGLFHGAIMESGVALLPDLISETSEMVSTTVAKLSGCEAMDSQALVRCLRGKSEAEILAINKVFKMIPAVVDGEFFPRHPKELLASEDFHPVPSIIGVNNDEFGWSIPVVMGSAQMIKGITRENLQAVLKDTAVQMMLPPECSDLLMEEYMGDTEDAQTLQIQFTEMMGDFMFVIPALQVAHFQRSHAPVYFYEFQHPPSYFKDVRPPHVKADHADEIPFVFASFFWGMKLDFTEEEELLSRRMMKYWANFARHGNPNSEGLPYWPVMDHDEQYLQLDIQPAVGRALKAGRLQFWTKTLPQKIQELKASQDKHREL

[3] = molecular target: T3, CES2 (Homo sapiens, UniProt O00748); experiment: Irreversibility: human liver microsomes incubated with Orlistat, native gel electrophoresis, activity staining (CES2); assay type: biochemical; set-up: from tissue; host or cells: human liver microsomes
T3 sequence (O00748 27-559): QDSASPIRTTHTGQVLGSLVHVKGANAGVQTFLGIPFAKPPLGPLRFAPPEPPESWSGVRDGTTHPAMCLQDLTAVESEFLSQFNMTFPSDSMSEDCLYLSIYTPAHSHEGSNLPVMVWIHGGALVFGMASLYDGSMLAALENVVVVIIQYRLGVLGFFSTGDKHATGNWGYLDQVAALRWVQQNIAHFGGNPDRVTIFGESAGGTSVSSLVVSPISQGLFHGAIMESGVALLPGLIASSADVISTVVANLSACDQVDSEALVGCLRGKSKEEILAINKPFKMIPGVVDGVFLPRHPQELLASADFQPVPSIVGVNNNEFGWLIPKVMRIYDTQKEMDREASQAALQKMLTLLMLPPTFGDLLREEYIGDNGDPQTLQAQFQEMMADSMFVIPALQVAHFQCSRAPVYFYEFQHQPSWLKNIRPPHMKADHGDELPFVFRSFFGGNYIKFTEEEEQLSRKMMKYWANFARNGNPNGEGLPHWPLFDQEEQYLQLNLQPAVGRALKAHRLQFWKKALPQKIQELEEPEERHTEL
Experimental: It was tested whether the inhibition involves covalent interactions between Orlistat and CES2. Microsomes from human livers (CES1 and CES2) were incubated with Orlistat, resolved by native gel electrophoresis to remove free Orlistat, and stained for the remaining activity.

[4] = molecular target: T4, mouse ces2e (Mus musculus, UniProt Q8BK48); settings: 1 nM Orlistat; cited from earlier work
T4 sequence (Q8BK48 27-559): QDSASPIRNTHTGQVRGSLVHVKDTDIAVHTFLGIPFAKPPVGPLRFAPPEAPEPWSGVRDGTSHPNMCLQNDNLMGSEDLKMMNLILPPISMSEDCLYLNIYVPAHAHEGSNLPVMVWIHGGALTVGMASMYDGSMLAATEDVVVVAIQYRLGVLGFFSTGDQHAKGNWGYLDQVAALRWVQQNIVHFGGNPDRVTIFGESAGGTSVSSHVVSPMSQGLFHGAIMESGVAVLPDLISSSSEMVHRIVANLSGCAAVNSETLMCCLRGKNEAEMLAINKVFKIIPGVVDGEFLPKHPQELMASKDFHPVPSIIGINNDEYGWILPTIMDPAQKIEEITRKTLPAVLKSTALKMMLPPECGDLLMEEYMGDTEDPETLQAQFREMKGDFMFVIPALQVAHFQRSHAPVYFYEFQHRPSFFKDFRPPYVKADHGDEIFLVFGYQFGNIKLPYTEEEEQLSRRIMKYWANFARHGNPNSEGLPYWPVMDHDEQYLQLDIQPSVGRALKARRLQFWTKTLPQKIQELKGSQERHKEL

[5] = molecular target: T5, rat ces1d (Rattus norvegicus, UniProt P16303); settings: major form of rat liver CES; cited from earlier work
T5 sequence (P16303 19-565): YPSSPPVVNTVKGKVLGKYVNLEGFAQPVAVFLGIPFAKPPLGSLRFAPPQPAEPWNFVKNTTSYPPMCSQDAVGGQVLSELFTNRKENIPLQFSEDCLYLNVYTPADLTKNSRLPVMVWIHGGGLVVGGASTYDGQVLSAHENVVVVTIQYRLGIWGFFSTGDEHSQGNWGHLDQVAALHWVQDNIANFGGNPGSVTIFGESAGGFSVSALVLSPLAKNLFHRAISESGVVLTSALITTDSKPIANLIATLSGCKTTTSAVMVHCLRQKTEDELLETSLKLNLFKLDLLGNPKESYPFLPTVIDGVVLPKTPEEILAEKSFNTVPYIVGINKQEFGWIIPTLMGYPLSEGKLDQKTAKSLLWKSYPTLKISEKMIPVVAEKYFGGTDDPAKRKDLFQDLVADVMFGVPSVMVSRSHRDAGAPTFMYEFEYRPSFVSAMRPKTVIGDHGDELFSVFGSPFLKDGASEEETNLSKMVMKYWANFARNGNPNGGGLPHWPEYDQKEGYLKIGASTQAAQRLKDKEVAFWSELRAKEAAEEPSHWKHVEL

[6] = system: cells; experiment: Cell viability of cells treated with PPD in the presence or absence of Orlistat; assay type: cell-based
Experimental: To shed light on the clinical consequences of inhibited CES2 by Orlistat, cells were treated with PPD in the presence or absence of Orlistat. PPD is a carbamate anticancer prodrug and activated preferentially by CES2 hydrolysis of the ester side chain of the carbamate (20, 21). […] This finding was confirmed in CES2 induced condition (Brit J Pharmacol. 2013, 168:1989-1999).

[7] = molecular target: T3, CES2; experiment: Inhibition of carboxylesterases by Orlistat (human CES2); assay type: biochemical; settings: Orlistat at 1 nM
From the text: (§1) For a decade, Orlistat has been the most used anti-obesity drug. However, the use of Orlistat has been associated with fatal liver and kidney toxicity. This type of toxicity is rare, pointing to a compound effect of multiple factors. Specifically, we assumed that orlistat alters the activity of detoxification enzymes, which may have fatal effects when these factors are perfectly aligned. To shed light on this possibility, we tested Orlistat for the inhibition of carboxylesterases, a class of hydrolytic enzymes with known detoxication significance. […] Orlistat at 1 nM inhibited CES2 by 75%, but no inhibition was detected with CES1. […] In a striking contrast, rat ces1d and ces1e, two major forms of liver CESs, were resistant to Orlistat (Biochem Pharmacol. 2013, 85:439-447).

[8] = molecular target: T6, CES1 (Homo sapiens, UniProt P23141); experiment: Inhibition of carboxylesterases by Orlistat (human CES1); assay type: biochemical
T6 sequence (P23141 18-567): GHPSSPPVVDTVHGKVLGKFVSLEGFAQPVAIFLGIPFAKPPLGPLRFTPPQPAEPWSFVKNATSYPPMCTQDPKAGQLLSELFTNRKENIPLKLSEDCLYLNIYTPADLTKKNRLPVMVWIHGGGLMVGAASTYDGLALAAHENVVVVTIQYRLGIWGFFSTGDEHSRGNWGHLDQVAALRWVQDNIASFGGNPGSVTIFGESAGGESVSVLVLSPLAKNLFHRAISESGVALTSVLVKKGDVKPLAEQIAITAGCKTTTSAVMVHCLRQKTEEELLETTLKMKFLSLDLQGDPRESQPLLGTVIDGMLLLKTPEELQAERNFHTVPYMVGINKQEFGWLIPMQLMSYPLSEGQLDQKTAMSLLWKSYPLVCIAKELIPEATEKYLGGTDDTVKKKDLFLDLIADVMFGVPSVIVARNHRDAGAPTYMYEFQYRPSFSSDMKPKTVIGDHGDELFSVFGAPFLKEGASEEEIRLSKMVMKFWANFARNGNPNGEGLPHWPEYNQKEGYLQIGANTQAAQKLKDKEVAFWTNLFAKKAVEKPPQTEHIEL
From the text: as §1

[9] = molecular target: T7, rat ces1e (Rattus norvegicus, UniProt Q63108); settings: major form of rat liver CES; cited from earlier work
T7 sequence (Q63108 19-561): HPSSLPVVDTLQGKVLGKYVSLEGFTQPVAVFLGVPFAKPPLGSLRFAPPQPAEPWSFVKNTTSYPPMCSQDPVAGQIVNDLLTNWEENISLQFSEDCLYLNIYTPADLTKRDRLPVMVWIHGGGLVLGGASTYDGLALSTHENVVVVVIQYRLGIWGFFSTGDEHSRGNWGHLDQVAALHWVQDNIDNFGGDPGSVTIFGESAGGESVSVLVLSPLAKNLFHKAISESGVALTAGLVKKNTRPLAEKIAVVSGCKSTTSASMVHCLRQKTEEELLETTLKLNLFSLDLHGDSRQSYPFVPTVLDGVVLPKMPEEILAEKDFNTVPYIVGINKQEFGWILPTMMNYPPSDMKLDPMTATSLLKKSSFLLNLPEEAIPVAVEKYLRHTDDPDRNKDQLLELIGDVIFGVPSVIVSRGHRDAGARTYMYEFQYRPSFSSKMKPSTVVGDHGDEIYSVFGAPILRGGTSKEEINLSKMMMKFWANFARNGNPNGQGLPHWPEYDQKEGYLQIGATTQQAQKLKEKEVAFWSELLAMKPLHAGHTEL

[10] = molecular target: T3, CES2; experiment: Cellular inhibition of CES2 in LS180 cells, lysates tested by native gel electrophoresis and Western blotting; assay type: cell-based; set-up: endogenous in cells; host or cells: LS180
Experimental: The cellular activity of Orlistat was examined on the inhibition of CES2 within cells. To test this possibility, LS180 cells (a colon adenocarcinoma line) were treated with orlistat for 1-24 h, washed extensively to remove free Orlistat and lysed by sonication. The lysates were then tested for the hydrolytic activity by native gel electrophoresis. […] We next tested whether the less inhibition by prolonged incubation was due to increased expression of CES2. Western blotting was performed with the same gel stained for activity. As predicated, prolonged incubation increased CES2 expression (FIG. 3B). These findings established that regeneration of CES2 requires new synthesis of CES2.

In the case of `CCCCCCCCCCC[C@@H](C[C@@H]1OC(=O)[C@H]1CCCCCC)OC(=O)[C@H](CC(C)C)NC=O` [Orlistat], the “inhibition of ces1d” value [1] is listed as 12%, the “inhibition of mouse ces2c” value [2] is listed as 90% and the “remaining activity of CES2 upon incubation with Orlistat” value ([3]; human liver microsomes, free Orlistat removed by native gel electrophoresis) is listed as “profoundly reduced”. The “type of inhibition of CES2” value ([3]; inhibition persists after removal of Orlistat by electrophoresis) was “irreversible inhibitor”, the “inhibition of mouse ces2e” value [4] was 55% and the “sensitivity of rat ces1d to Orlistat” value [5] was “resistant”. For the same compound, the “reduction of cell viability by PPD (carbamate) in the presence of Orlistat” value ([6]; PPD plus Orlistat) was “significantly reversed”, the “reduction of the cell killing activity of PPD” value ([6]; pretreatment with Orlistat) was at most 60% and the cell viability ([6]; treatment with substance alone) was “no changes”. For the same compound, the “inhibition of CES2” value [7] was 75%, the inhibition at 0.1 µM ([8]; 100 nM orlistat) was about 30% and the “inhibition of CES1” value ([8]; Orlistat at 1 nM) was “no inhibition”. For the same compound, the “sensitivity of rat ces1e to Orlistat” value [9] was “resistant”, the “inhibition of CES2 activity in cells” value ([10]; 1-h incubation) was about 80% and the “CES2 expression (Western blotting)” value ([10]; prolonged incubation 24 h) was “increased”. For the same compound, the “inhibition of CES2 activity in cells” value ([10]; prolonged incubation 24 h) was “less effective” and the “inhibition of CES2 activity in cells” value ([10]; treated for 6 h) was “Comparable inhibition”.
